Experimental data taken from ChEMBL document CHEMBL1201862, “PubChem BioAssay data set” (2004).
Activity calls are given as the source filed them.

How the values were obtained:
Protein Wnt-3a = Protein Wnt-3a (Mus musculus, UniProt P27467); assay: SAR analysis of small molecule antagonists of Gli-SUFU in a Wnt3a luminescent reporter assay.; assay type: functional
[1] = HEK293T cytotoxicity, dose response, cytotoxicity control for miR-122 modulator project, cell-based, activator set, cherry-pick (AID 720690); assay type: functional;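 note: HEK293T human cells scored for general mammalian cytotoxicity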
[2] = LGR2 antagonists, dose response, cell-based, HEK293, CRE-luciferase reporter, cherry pick, set 2 (AID 743343); assay type: functional;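 note: transfected cells were stimulated with diluted bursicon conditioned medium after compound addition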
[3] = HEK293 cell cytotoxicity, dose response, cytotoxicity control, plate reader, cherry-picked samples (AID 743446); assay type: functional, cell-based
[4] = MC4R antagonists, dose response, counter-screen for LGR2 antagonist project, cell-based, plate reader, cherry pick (AID 743444); assay type: functional;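 note: transfected HEK 293 cells stimulated with alpha-MSH peptide; potency of inhibitors of the alpha-MSH evoked signal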
[5] = HepG2 cell cytotoxicity, dose response, cytotoxicity control, plate reader, cherry-pick, antagonist series (AID 743416); assay type: functional, cell-based
[6] = A549 cell cytotoxicity, dose response, cytotoxicity control, plate reader, cherry-pick, antagonist series (AID 743412); assay type: functional, cell-based
Kallikrein-7 = Kallikrein-7 (Homo sapiens, UniProt P49862); assay: Fluorescence Intensity-based biochemical primary high throughput dose response assay to identify activators of kallikrein-7 (K7) zymogen.
Chain of Kallikrein-7 (P49862 whole entry): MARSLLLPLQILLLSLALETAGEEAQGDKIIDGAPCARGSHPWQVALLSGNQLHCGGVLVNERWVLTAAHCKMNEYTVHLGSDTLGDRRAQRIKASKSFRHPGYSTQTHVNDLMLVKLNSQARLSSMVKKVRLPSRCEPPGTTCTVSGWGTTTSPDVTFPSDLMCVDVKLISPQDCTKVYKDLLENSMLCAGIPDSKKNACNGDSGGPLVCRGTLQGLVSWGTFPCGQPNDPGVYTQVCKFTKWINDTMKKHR

[7] = C. albicans growth with fluconazole, confirmation, fluorescence, retest (AID 2467); assay type: functional, cell-based
[8] = NIH-3T3 fibroblast cytotoxicity, dose response, cytotoxicity control, cell-based, fluorescence, Alamar Blue, secondary assay (AID 2327); assay type: functional;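 note: NIH-3T3 mouse fibroblasts cultured with fluconazole at 8 µg/mL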
[9] = inhibitors of PGC1a acetylation in cells, dose response, cell-based, cherry-picked samples (AID 720514); assay type: functional;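 note: potency may reflect raised or lowered acetylation signal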
[10] = P. falciparum Dd2 growth inhibitors, dose response, SYBR Green, cherry-picked samples (AID 1159567); assay type: functional, cell-based
[11] = HepG2 cell cytotoxicity, dose response, cytotoxicity control, cherry-picked samples (AID 1159577); assay type: functional, cell-based
[12] = P. falciparum late gametocyte killing, dose response, luminescence (AID 1117278); assay type: functional, cell-based;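 note: gametocytes exposed to compound for 24 hours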
[13] = Jurkat T cell cytotoxicity, dose response, cytotoxicity control for P. falciparum gametocyte viability project, luminescence (AID 1117277); assay type: functional, cell-based;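 note: potency reflects loss of cellular ATP meaning fewer viable cells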
[14] = TRPM1 promoter luciferase reporter signal decrease, dose response, MITF inhibitor project, cell-based, SK-MEL-5, dry powder, set 8 (AID 624430); assay type: functional
[15] = MITF Orthogonal Assay: SK-MEL-5 CTG Assay Measured in Cell-Based System Using Plate Reader - 2084-02_Inhibitor_Dose_DryPowder_Activity_Set7.; assay type: functional
[16] = MITF: Counter assay: A375 proliferation Measured in Cell-Based System Using Plate Reader - 2084-03_Inhibitor_Dose_DryPowder_Activity_Set8.; assay type: functional; conditions: A-375
Nonstructural protein 1 = Nonstructural protein 1 (Influenza A virus, UniProt Q194T2); assay type: functional, Influenza A virus (A/California/07/2009(H1N1))
Chain of Nonstructural protein 1 (Q194T2 whole entry): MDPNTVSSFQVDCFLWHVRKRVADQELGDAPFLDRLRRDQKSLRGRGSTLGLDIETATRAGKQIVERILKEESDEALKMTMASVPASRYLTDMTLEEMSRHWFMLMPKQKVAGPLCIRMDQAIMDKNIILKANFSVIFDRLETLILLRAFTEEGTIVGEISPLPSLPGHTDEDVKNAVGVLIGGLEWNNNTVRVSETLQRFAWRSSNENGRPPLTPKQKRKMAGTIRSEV

[17] = target: Histone-lysine N-methyltransferase NSD2 (Homo sapiens, UniProt O96028); assay type: biochemical
Chain of Histone-lysine N-methyltransferase NSD2 (O96028 whole entry): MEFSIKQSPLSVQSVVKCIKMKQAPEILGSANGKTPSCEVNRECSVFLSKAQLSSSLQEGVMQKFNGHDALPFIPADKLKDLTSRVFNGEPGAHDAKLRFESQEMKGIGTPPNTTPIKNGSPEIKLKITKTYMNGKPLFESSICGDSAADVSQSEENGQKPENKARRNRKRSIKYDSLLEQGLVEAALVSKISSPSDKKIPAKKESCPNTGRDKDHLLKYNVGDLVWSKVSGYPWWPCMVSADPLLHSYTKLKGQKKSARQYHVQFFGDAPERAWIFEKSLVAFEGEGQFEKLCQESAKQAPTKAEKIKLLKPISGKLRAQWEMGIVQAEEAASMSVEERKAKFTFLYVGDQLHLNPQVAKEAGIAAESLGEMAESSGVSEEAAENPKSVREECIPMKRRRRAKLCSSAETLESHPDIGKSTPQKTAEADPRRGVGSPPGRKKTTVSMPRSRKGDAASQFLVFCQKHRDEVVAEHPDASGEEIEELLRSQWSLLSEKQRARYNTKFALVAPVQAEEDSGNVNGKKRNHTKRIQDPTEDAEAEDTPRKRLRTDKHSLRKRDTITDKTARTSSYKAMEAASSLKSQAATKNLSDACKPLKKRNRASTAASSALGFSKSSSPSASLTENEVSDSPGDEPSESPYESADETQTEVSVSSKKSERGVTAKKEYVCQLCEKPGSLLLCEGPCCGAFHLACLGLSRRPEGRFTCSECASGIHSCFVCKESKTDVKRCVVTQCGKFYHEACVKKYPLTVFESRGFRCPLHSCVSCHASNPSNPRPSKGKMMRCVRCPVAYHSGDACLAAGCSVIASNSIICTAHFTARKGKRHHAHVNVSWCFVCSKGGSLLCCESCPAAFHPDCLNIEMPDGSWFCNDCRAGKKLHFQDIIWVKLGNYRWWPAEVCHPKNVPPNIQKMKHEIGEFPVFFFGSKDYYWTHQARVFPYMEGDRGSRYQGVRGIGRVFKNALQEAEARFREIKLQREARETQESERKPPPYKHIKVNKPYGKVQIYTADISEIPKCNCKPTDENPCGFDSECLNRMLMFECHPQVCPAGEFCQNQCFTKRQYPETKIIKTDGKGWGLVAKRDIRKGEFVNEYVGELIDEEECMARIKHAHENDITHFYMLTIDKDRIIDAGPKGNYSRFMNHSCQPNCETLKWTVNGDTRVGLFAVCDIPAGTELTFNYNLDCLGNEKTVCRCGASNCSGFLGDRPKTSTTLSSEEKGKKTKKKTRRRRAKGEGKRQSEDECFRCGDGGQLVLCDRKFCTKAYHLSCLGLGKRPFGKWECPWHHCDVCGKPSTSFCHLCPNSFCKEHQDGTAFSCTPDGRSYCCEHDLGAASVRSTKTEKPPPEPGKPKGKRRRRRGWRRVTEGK

[18] = target: T1, Replicative DNA helicase DnaB (Mycobacterium tuberculosis, UniProt P9WMR3); assay: DnaB intein splicing inhibitors, dose response, biochemical, cell-free fluorescence (AID 449749); assay type: functional
T1 sequence (P9WMR3 whole entry): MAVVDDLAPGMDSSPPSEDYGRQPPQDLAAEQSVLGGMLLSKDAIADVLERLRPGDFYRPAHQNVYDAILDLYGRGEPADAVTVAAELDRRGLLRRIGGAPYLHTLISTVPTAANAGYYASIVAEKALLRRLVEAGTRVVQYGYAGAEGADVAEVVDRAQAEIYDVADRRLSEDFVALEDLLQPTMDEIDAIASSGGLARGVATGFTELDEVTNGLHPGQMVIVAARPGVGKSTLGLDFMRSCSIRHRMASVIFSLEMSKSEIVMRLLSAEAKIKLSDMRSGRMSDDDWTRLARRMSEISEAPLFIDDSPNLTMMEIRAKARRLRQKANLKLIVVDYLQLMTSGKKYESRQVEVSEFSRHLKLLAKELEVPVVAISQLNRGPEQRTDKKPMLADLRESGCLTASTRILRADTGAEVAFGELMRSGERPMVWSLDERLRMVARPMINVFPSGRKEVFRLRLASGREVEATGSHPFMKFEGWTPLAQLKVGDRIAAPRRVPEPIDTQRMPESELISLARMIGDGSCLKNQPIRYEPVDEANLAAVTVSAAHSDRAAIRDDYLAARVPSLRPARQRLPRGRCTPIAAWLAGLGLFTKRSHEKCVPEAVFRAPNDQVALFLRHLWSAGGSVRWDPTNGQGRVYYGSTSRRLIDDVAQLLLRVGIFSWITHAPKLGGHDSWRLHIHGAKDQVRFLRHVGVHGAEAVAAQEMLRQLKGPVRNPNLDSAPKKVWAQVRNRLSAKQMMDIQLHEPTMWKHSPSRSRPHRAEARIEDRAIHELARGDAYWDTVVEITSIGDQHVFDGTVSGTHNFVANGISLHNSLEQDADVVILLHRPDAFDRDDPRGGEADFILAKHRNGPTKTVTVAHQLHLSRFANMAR

Protein RecA = target: T2, Protein RecA (Mycobacterium tuberculosis, UniProt P9WHJ3); assay: Fluorescence Cell-Free Homogeneous Dose Retest to Identify Inhibitors of RecA-Intein Splicing Activity. [Related pubchem assays (depositor defined):AID2097, AID2223, AID489010, AID492950]; assay type: functional
T2 sequence (P9WHJ3 whole entry): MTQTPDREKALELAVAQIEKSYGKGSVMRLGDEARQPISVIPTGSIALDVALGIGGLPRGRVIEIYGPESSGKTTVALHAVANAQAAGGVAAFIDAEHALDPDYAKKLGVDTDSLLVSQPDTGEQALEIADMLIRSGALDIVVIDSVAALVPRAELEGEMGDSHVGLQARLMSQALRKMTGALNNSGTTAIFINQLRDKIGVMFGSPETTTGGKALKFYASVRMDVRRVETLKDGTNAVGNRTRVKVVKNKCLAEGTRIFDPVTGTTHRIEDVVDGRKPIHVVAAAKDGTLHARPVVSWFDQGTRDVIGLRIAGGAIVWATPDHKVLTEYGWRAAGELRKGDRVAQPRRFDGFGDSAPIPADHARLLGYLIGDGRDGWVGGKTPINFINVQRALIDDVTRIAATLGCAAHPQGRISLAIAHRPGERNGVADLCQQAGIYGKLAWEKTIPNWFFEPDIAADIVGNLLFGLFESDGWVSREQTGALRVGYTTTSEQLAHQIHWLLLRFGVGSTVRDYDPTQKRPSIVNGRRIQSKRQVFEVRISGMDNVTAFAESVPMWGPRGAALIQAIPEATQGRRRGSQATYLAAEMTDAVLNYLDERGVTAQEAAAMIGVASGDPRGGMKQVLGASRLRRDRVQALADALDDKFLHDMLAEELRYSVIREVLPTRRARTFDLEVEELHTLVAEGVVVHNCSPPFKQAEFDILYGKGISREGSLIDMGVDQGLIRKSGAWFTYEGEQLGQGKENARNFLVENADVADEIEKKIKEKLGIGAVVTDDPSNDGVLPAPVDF

[19] = target: DNA repair protein RAD52 homolog (Homo sapiens, UniProt P43351); assay type: functional, biochemical
Chain of DNA repair protein RAD52 homolog (P43351 whole entry): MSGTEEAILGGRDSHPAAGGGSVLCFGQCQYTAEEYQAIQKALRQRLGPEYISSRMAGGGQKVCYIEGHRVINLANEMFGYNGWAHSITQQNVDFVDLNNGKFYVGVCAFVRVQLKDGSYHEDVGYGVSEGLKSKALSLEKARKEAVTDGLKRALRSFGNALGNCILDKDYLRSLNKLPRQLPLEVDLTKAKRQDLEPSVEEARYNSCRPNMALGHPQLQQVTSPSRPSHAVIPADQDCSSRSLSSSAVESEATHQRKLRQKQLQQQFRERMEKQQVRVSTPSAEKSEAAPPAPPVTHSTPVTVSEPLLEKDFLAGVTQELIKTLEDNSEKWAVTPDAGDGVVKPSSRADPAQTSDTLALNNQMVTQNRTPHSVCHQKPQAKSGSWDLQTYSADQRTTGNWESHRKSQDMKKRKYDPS

[20] = ADAM10 inhibitors, peptide cleavage, dose response, biochemical, QFRET (AID 743254);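 note: ADAM10 enzyme with the DM2 quenched FRET peptide as substrate; EDANS fluorescence gain as the protease cuts the substrate; inhibitor potency against ADAM10 proteolytic activity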
[21] = target: Disintegrin and metalloproteinase domain-containing protein 17 (Homo sapiens, UniProt P78536); assay: ADAM17 protease inhibitors, dose response, counter-screen for ADAM10 exosite inhibitor project, biochemical, quenched FRET substrate (AID 743253)
Chain of Disintegrin and metalloproteinase domain-containing protein 17 (P78536 whole entry, the tested form may be a part): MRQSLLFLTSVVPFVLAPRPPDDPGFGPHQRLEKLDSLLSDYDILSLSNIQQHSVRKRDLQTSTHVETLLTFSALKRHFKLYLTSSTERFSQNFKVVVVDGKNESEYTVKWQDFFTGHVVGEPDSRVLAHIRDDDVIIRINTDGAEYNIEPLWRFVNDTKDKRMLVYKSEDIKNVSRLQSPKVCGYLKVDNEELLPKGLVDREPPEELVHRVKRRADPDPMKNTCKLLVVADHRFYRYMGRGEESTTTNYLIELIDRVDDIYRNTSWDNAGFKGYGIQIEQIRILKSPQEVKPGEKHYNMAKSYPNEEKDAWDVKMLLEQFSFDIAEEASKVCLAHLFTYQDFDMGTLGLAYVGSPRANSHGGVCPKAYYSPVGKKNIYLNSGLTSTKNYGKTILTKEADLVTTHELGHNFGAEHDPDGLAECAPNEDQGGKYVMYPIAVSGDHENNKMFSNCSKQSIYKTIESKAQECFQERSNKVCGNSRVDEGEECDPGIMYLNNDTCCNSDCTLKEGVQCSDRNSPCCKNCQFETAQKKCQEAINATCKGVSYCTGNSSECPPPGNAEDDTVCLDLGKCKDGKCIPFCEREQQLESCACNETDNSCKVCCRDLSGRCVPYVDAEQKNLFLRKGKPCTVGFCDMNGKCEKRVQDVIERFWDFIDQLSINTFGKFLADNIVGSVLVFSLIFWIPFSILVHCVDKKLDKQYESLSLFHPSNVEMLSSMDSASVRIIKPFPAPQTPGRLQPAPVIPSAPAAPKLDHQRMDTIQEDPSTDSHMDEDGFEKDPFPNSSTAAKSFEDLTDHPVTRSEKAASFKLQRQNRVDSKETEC

[22] = inhibitors of Vif binding to APOBEC3G peptide, primary screen, biochemical, TR-FRET, GST-Vif 1-94, biotin-A3G peptide, dose response retest (AID 1117319); assay type: functional;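 note: TR-FRET signal of purified GST-Vif binding a biotinylated A3G peptide; inhibitors lower the FRET signal by blocking Vif and A3G binding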
[23] = Dose-response inhibition of insulin secretion in a rat insulinoma line at 5 mM glucose (AID 1117331); assay type: functional, cell-based; conditions: INS-1E
[24] = A549 cell cytotoxicity, dose response, cytotoxicity control, cherry-picks, 26 µM top dose (AID 1053119); assay type: functional, cell-based
[25] = cytotoxicity toward HCT116 cells – cell-based, CellTiter-Glo luminescence, IC50, dose response (AID 1117332); assay type: functional; conditions: HCT-116
[26] = CellTiter-Glo luminescent dose response of DLD-1 viability loss (AID 1117352); assay type: functional
[27] = Concentration-dependent survival of SW480 colon cancer line, luminescence detection with CellTiter-Glo, half-maximal inhibitory concentration (AID 1117338); assay type: functional
[28] = cytotoxicity toward HT-29 cells – cell-based, CellTiter-Glo luminescence, IC50, dose response (AID 1117330); assay type: functional
[29] = RKO cell viability reduction, dose response, CellTiter-Glo luminescence (AID 1117322); assay type: functional
[30] = cytotoxicity toward Colo320 cells – cell-based, CellTiter-Glo luminescence, IC50, dose response (AID 1117334); assay type: functional; conditions: COLO 320
[31] = SNU-C1 cell viability reduction, dose response, CellTiter-Glo luminescence (AID 1117323); assay type: functional, cell-based

Chain of Protein Wnt-3a (P27467 whole entry): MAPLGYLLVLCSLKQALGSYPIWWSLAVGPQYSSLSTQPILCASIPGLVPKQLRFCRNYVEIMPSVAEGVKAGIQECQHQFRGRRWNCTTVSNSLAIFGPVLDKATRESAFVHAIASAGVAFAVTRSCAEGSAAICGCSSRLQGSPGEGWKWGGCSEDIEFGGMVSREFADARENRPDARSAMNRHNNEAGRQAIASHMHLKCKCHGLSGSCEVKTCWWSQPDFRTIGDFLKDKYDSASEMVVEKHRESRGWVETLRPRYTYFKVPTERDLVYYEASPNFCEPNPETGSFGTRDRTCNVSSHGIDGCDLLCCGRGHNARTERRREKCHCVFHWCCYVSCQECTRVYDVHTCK

With `COc1cc(OC)cc(C(=O)Nc2cc(N3CCCCC3)ncn2)c1` the IC50 (Protein Wnt-3a) was > 21.8 µM (inactive).
With `COc1ccc(CN(C)C[C@@H]2OCCCC[C@H](C)Oc3ccc(NC(=O)Nc4ccc(C(F)(F)F)cc4)cc3C(=O)N([C@H](C)CO)C[C@H]2C)cc1` the AC50 [1] was 16.6 µM (active).
In the case of `CCCc1c(-c2ccccc2F)ncn1CCc1ccccc1OC`, the AC50 [2] is reported as 13.4 µM (active), the AC50 [3] is reported as 31.7 µM (active) and the AC50 [4] is reported as 17.4 µM (active). The AC50 [5] was 23.6 µM (active) and the AC50 [6] was 23.5 µM (active).
With `COc1ccc(-c2cc(C(=O)NC3CC3)c3ccccc3n2)cc1` the EC50 (Kallikrein-7) was 86.4 µM (inactive).
In the case of `C=CCO/C(O)=C1\C(C)=NC(SCC(=O)NC(=O)OCC)=C(C#N)C1c1cccnc1` (stereo not drawn), the EC50 (Kallikrein-7) is reported as 4.56 µM (active), the EC50 [7] is reported as 6.32 µM (active) and the EC50 [8] is reported as > 150 µM (inactive).
For `Fc1ccc(-c2ccc([C@@H]3[C@@H]4CN(Cc5ccccc5)C[C@H]3N4)cc2)cc1`, the AC50 [9] was 14.3 µM (active), the AC50 [10] was 4.07 µM (active) and the AC50 [11] was 8.83 µM (active).
With `Cc1csc(CNc2ncnc3ccc(-c4ccoc4)cc23)c1` the AC50 [2] was 0.81 µM (active), the AC50 [3] was 28.9 µM (active) and the AC50 [4] was 0.489 µM (active). The AC50 [5] was 27.8 µM (active) and the AC50 [6] was > 52 µM (inactive).
With `CCOC(=O)C(C#N)C(c1cccnc1)c1c(C)n[nH]c1O` (stereo not drawn) the IC50 [12] was > 109 µM (inactive) and the IC50 [13] was > 83.3 µM (inactive).
For `CN1CCN(C2=C(Nc3ccc(F)cc3)C(=O)c3ccccc3C2=O)CC1`, the AC50 [14] was 8.28 µM (active), the AC50 [15] was 12.1 µM (active) and the AC50 [16] was > 70 µM (inactive).
For `COC1=C(Nc2ccc(OC)cc2)C(=O)c2ccccc2C1=O`, the IC50 (Nonstructural protein 1) was 9.3 µM (active) and the AC50 [17] was 8.98 µM (active).
For `Cc1ccc(C(=O)Nc2cc(N3CCCCC3)ncn2)cc1`, the IC50 (Protein Wnt-3a) was > 21.8 µM (inactive).
In the case of `Nc1ccc2[nH]cnc2c1`, the AC50 [18] is reported as 2.92 µM (active), the EC50 (Protein RecA) is reported as 23.6 µM (active) and the AC50 [19] is reported as 6.22 µM (active).
In the case of `COc1cc(NC(=O)c2ccccc2)c(C)cc1NC(=O)CSc1nnc(-c2ccccc2F)n1-c1ccc(C)cc1`, the IC50 [20] is reported as > 69.5 µM (inactive) and the IC50 [21] is reported as > 69.5 µM (inactive).
For `CC1=C(C(=O)NCc2ccco2)C2(CCC(C)CC2)OC1=O` (stereo not drawn), the IC50 [22] was > 100 µM (active).
With `CN(C)CC/C=C1\c2ccccc2Sc2ccc(Cl)cc21` the IC50 [23] was > 33.3 µM (inactive).
In the case of `CN(C)C(=O)c1ccc(-c2ccc3c(c2)[C@H]2[C@H](CCN2C(=O)c2ccc(F)cc2)[C@@H](CO)N3C)cc1`, the AC50 [24] is reported as > 47 µM (inactive).
With `O=C(/C=C/c1cccs1)c1ccc(NC(=O)c2cccc(Br)c2)cc1` the AC50 [9] was 28.9 µM (active).
With `CC(C)(C)CC(C)(C)c1cc(Cc2cc(C(C)(C)CC(C)(C)C)cc(-n3nc4ccccc4n3)c2O)c(O)c(-n2nc3ccccc3n2)c1` [BISOCTRIZOLE] the IC50 [25] was > 20 µM (inactive), the IC50 [26] was > 20 µM (inactive) and the IC50 [27] was > 20 µM (inactive). For the same compound, the IC50 [28] was > 20 µM (inactive), the IC50 [29] was > 20 µM (inactive) and the IC50 [30] was > 20 µM (inactive). For the same compound, the IC50 [31] was > 20 µM (inactive).
